Assays:
RNR (RNR1:RNR2 1:1) = RNR (RNR1:RNR2 1:1) (Homo sapiens (Human), UniProt P23921); assay: RNR enzyme activity, rapid-fire mass spectrometry (RF/MS) assay; assay type: biochemical; settings: RNR 50 nM, 1:1 RNR1:RNR2; CDP 5 μM, ATP 1 mM; 37° C., 45 min; compounds screened up to 50 μM
Protocol: A rapid-fire mass spectrometry (RF/MS) assay was used to assess RNR enzyme activity using a 384 well plate and a robotic platform.
The plate layout included two validated reference compounds (Triapine (3-AP) and Hydroxyurea (HU)): • A dose response in duplicate; top concentration: 5 μM (3-AP) and 250 μM (HU), semi-log • dilutions. • Spike wells in triplicate randomly spotted at four concentrations: • 250 μM, 100 μM, 30 μM and 2 μM for HU • 5 μM, 2 μM, 0.6 μM and 0.04 μM for 3-AP
First, the multidrop pipes were saturated for 30 minutes with enzymatic solution. Then 30 μL of Stop solution was distributed in column 24. Next, 15 μL of enzyme was distributed in column 1 to 24. Next, a pre-incubation step of 15 minutes at room temperature occurred, followed by distribution of 15 μL of substrate solution (column 1 to 24). Next, the plate was incubated for 45 minutes at 37° C. 30 μL of Stop solution was distributed to columns 1 to 23.
The final parameters for the enzyme reactions were: • Incubation: 37° C., 45 min • [CDP]: 5 μM; [ATP]: 1 mM; [NADPH]: No • [RNR]final: 50 nM with 1:1 (RNR1:RNR2) ratio • Final volume: 30 μL • Stop solution: 6% HCOOH containing 2 μM of 15

[1] = test system: pCHK1 (S345) in Colo320 DM cells; assay: Alphalisa assay: pCHK1 (S345) detection in Colo320 DM cells; assay type: cell-based, human; settings: compound incubation overnight (approximately 16 hours), pCHK1 (S345) AlphaLisa Sure Fire kit
Protocol: Colo320 DM cells (ATCC #CCL-220, derived from human colorectal adenocarcinoma, Dukes' type C) were seeded on a 96-well, cell culture treated assay plate at a density of 50,000 cells/well in 200 μL of RPMI-1640 media supplemented with 10% Fetal Bovine Serum and incubated at 37 degrees Celsius overnight. The following day, test compound dilutions were added directly to the plated cells by a Tecan digital dispenser to a final DMSO concentration of <0.5%. and incubated at 37 degrees Celsius overnight (approximately 16 hours). The following day all cull culture media was removed from the cells. 75 μL of 1× AlphaLisa lysis buffer was added to each well and plates were agitated on a shaker for 30 minutes at room temperature. The lysis of cells and detection of pCHK1 (S345) were performed with regents contained within the AlphaLisa Sure Fire assay kit (Perkin Elmer #ALSU-PCHK1-A) according to the manufacturer's instructions. 10 μL of each lysate was then transferred to a white, 384-well assay plate (Perkin Elmer #6008280). 5 μL of Acceptor mix was then added to each well of lysate in the white, 384-well assay plate and incubated in the dark at room temperature for 60 minutes. 5 μL of Donor mix was then added to each well of the white, 384-well assay plate in subdued light and incubated at room temperature for 60 minutes. Plates were read on an Alpha Technology-compatible plate reader using standard AlphaLisa settings.

Chain of RNR (RNR1:RNR2 1:1) (P23921 whole entry): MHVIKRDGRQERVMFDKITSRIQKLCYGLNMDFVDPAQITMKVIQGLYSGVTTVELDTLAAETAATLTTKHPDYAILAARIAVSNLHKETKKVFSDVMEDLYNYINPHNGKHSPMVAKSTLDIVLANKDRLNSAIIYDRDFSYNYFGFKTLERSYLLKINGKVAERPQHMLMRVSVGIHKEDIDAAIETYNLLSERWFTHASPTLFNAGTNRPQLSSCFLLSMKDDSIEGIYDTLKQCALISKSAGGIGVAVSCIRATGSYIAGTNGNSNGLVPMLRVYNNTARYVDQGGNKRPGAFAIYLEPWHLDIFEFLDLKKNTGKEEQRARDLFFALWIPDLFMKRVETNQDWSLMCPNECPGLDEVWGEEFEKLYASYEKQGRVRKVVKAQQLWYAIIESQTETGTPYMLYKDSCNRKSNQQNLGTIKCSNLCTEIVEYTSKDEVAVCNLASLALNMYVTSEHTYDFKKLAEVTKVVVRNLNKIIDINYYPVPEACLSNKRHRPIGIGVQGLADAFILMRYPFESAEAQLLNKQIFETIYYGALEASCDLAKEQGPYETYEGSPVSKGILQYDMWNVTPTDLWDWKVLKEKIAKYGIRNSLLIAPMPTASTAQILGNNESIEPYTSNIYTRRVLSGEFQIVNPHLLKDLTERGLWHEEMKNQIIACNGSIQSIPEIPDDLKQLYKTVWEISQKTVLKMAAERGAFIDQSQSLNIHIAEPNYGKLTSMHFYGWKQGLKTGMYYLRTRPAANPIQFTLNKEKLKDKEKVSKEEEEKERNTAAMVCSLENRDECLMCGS

Row | SMILES | IC50 (RNR (RNR1:RNR2 1:1)) | IC50 [1] | IC50 ([1]; Homo sapiens, COLO 320DM)
1 | COc1cc(Cl)cc2c1S(=O)(=O)N([C@@H](c1n[nH]c(=O)o1)[C@@H](C)c1c(F)ccc(C)c1C)C2=O (stereo in doubt) [Example 3, 5-((1R,2S)-1-(5-chloro-7-methoxy-1,1-dioxido-3-oxobenzo[d]isothiazol-2(3H)-yl)-2-(6-fluoro-2,3-dimethylphenyl)propyl)-1,3,4-oxadiazol-2(3H)-one] | 10 to 100 µM | > 50 µM | 
2 | COc1cc(Cl)cc2c1S(=O)(=O)N([C@@H](c1n[nH]c(=O)o1)[C@H](C)c1c(F)ccc(C)c1C)C2=O (stereo in doubt) [Example 4, 5-((1R,2R)-1-(5-chloro-7-methoxy-1,1-dioxido-3-oxobenzo[d]isothiazol-2(3H)-yl)-2-(6-fluoro-2,3-dimethylphenyl)propyl)-1,3,4-oxadiazol-2(3H)-one] | 10 to 100 µM |  | > 50 µM
3 | COc1cc(Cl)cc2c1S(=O)(=O)N([C@@H](c1n[nH]c(=O)o1)[C@@H](C)c1c(F)ccc(C)c1C)C2=O (stereo in doubt) [Example 15, 5-((1R,2S)-1-(5-chloro-7-methoxy-1,1-dioxido-3-oxobenzo[d]isothiazol-2(3H)-yl)-2-(6-fluoro-2,3-dimethylphenyl)propyl)-1,3,4-oxadiazol-2(3H)-one] | 10 to 100 µM |  | > 50 µM
4 | Cc1ccc(F)c([C@@H](C)[C@@H](c2n[nH]c(=O)o2)N2C(=O)c3cc(Cl)ccc3S2(=O)=O)c1C [Example 1, 5-((1S,2R)-1-(5-chloro-1,1-dioxido-3-oxobenzo[d]isothiazol-2(3H)-yl)-2-(6-fluoro-2,3-dimethylphenyl)propyl)-1,3,4-oxadiazol-2(3H)-one] | 10 to 100 µM |  | > 50 µM
5 | Cc1ccc(F)c([C@H](C)[C@@H](c2n[nH]c(=O)o2)N2C(=O)c3cc(Cl)ccc3S2(=O)=O)c1C [Example 2, 5-((1S,2S)-1-(5-chloro-1,1-dioxido-3-oxobenzo[d]isothiazol-2(3H)-yl)-2-(6-fluoro-2,3-dimethylphenyl)propyl)-1,3,4-oxadiazol-2(3H)-one] | 1 to 10 µM |  | > 50 µM
6 | COc1cc(Cl)cc2c1S(=O)(=O)N([C@H](c1n[nH]c(=O)o1)[C@@H](C)c1c(F)ccc(C)c1C)C2 [Example 5, 5-((1S,2S)-1-(5-chloro-7-methoxy-1,1-dioxidobenzo [d]isothiazol-2(3H)-yl)-2-(6-fluoro-2,3-dimethylphenyl)propyl)-1,3,4-oxadiazol-2(3H)-one] | 10 to 100 µM |  | > 50 µM
7 | COc1cc(Cl)cc2c1S(=O)(=O)N([C@H](c1n[nH]c(=O)o1)[C@H](C)c1c(F)ccc(C)c1C)C2 [Example 6, 5-((1S,2R)-1-(5-chloro-7-methoxy-1,1-dioxidobenzo [d]isothiazol-2(3H)-yl)-2-(6-fluoro-2,3-dimethylphenyl)propyl)-1,3,4-oxadiazol-2(3H)-one] | 1 to 10 µM |  | > 50 µM
8 | Cc1ccc(F)c([C@@H](C)[C@@H](c2n[nH]c(=O)o2)N2CCc3cc(Cl)ccc3S2(=O)=O)c1C [Example 7, 5-((1S,2R)-1-(6-chloro-1,1-dioxido-3,4-dihydro-2H-benzo[e][1,2]thiazin-2-yl)-2-(6-fluoro-2,3-dimethylphenyl)propyl)-1,3,4-oxadiazol-2(3H)-one] | ≤ 0.1 µM |  | ≤ 5 µM
9 | Cc1ccc(F)c([C@H](C)[C@H](c2n[nH]c(=O)o2)N2CCc3cc(Cl)ccc3S2(=O)=O)c1C [Example 8, 5-((1R,2S)-1-(6-chloro-1,1-dioxido-3,4-dihydro-2H-benzo[e][1,2]thiazin-2-yl)-2-(6-fluoro-2,3-dimethylphenyl)propyl)-1,3,4-oxadiazol-2(3H)-one] | 10 to 100 µM |  | > 50 µM
10 | Cc1ccc(F)c([C@@H](C)[C@@H](c2n[nH]c(=O)o2)N2CCCc3cc(Cl)ccc3S2(=O)=O)c1C [Example 9, 5-((1S,2R)-1-(7-chloro-1,1-dioxido-4,5-dihydrobenzo [f][1,2]thiazepin-2(3H)-yl)-2-(6-fluoro-2,3-dimethylphenyl)propyl)-1,3,4-oxadiazol-2(3H)-one] | ≤ 0.1 µM |  | ≤ 5 µM
11 | Cc1ccc(F)c([C@H](C)[C@@H](c2n[nH]c(=O)o2)N2CCCc3cc(Cl)ccc3S2(=O)=O)c1C [Example 10, 5-((1S,2S)-1-(7-chloro-1,1-dioxido-4,5-dihydrobenzo [f][1,2]thiazepin-2(3H)-yl)-2-(6-fluoro-2,3-dimethylphenyl)propyl)-1,3,4-oxadiazol-2(3H)-one] | 10 to 100 µM |  | > 50 µM
12 | Cc1ccc(F)c([C@@H](C)[C@@H](c2n[nH]c(=O)o2)N2CCc3ccc(Cl)cc3S2(=O)=O)c1C [Example 11, 5-((1S,2R)-1-(7-chloro-1,1-dioxido-3,4-dihydro-2H-benzo[e][1,2]thiazin-2-yl)-2-(6-fluoro-2,3-dimethylphenyl)propyl)-1,3,4-oxadiazol-2(3H)-one] | 0.1 to 1 µM |  | > 50 µM
13 | Cc1ccc(F)c([C@H](C)[C@@H](c2n[nH]c(=O)o2)N2CCc3ccc(Cl)cc3S2(=O)=O)c1C [Example 12, 5-((1S,2s)-1-(7-chloro-1,1-dioxido-3,4-dihydro-2H-benzo[e][1,2]thiazin-2-yl)-2-(6-fluoro-2,3-dimethylphenyl)propyl)-1,3,4-oxadiazol-2(3H)-one] | 10 to 100 µM |  | > 50 µM
14 | Cc1ccc(F)c([C@@H](C)[C@@H](c2nn[nH]n2)N2CCc3cc(Cl)ccc3S2(=O)=O)c1C [Example 13, 6-chloro-2-((1S,2R)-2-(6-fluoro-2,3-dimethylphenyl)-1-(2H-tetrazol-5-yl)propyl)-3,4-dihydro-2H-benzo[e][1,2] thiazine 1,1-dioxide] | ≤ 0.1 µM |  | 5 to 10 µM
15 | Cc1ccc(F)c([C@@H](C)[C@@H](c2n[nH]c(=O)o2)N2Cc3cc(Cl)ccc3S2(=O)=O)c1C [Example 14, 5-((1S,2R)-1-(5-chloro-1,1-dioxidobenzo [d]isothiazol-2(3H)-yl)-2-(6-fluoro-2,3-dimethylphenyl)propyl)-1,3,4-oxadiazol-2(3H)-one] | 1 to 10 µM |  | > 50 µM
16 | Cc1ccc(F)c(C(C)[C@@H](c2n[nH]c(=O)o2)N2CC(=O)c3cc(Cl)ccc3S2(=O)=O)c1C (stereo partly drawn) [Example 16, 5-((1S)-1-(6-chloro-1,1-dioxido-4-oxo-3,4-dihydro-2H-benzo[e] [1,2]thiazin-2-yl)-2-(6-fluoro-2,3-dimethylphenyl)propyl)-1,3,4-oxadiazol-2(3H)-one] | 0.1 to 1 µM |  | 5 to 10 µM
17 | Cc1ccc(F)c(C(C)[C@@H](c2n[nH]c(=O)o2)N2C(=O)Cc3cc(Cl)ccc3S2(=O)=O)c1C (stereo partly drawn) [Example 17, 5-((1S)-1-(6-chloro-1,1-dioxido-3-oxo-3,4-dihydro-2H-benzo[e] [1,2]thiazin-2-yl)-2-(6-fluoro-2,3-dimethylphenyl)propyl)-1,3,4-oxadiazol-2(3H)-one] | 10 to 100 µM |  | > 50 µM
18 | Cc1ccc(F)c([C@@H](C)[C@@H](c2n[nH]c(=O)o2)N2CCc3ccccc3S2(=O)=O)c1C [Example 18, 5-((1S,2R)-1-(1,1-dioxido-3,4-dihydro-2H-benzo[e] [1,2]thiazin-2-yl)-2-(6-fluoro-2,3-dimethylphenyl)propyl)-1,3,4-oxadiazol-2(3H)-one] | 0.1 to 1 µM |  | 10 to 50 µM
19 | Cc1ccc(F)c([C@@H](C)[C@@H](c2n[nH]c(=O)o2)N2CC(O)c3cc(Cl)ccc3S2(=O)=O)c1C (stereo partly drawn) [Example 19, 5-((1S,2R)-1-(6-chloro-4-hydroxy-1,1-dioxido-3,4-dihydro-2H-benzo[e][1,2]thiazin-2-yl)-2-(6-fluoro-2,3-dimethylphenyl)propyl)-1,3,4-oxadiazol-2(3H)-one] | 0.1 to 1 µM |  | 10 to 50 µM
20 | Cc1ccc(F)c(C(C)[C@@H](c2n[nH]c(=O)o2)N2CC(C)c3cc(Cl)ccc3S2(=O)=O)c1C (stereo partly drawn) [Example 20, 5-((1S)-1-(6-chloro-4-methyl-1,1-dioxido-3,4-dihydro-2H-benzo[e][1,2]thiazin-2-yl)-2-(6-fluoro-2,3-dimethylphenyl)propyl)-1,3,4-oxadiazol-2(3H)-one] | ≤ 0.1 µM |  | ≤ 5 µM

— patent US20250002486A1, “CYCLIC SULFONAMIDE RIBONUCLEOTIDE REDUCTASE (RNR) INHIBITORS AND USES THEREOF” (Boundless Bio, Inc., priority 2021, published 2025)
